IC50 data for 35 molecules are collected here from US8044069B2, “Compounds as calcium channel blockers” (Abbott Laboratories, priority 2008, dated 2011).

In general, IC50 refers to the point on the concentration scale where inhibition reaches its midpoint.

The assay addresses human Cav2.2 (Homo sapiens, UniProt Q00975). Kind of assay: Assessment of calcium channel activity using FLIPR (Ca2+ influx in IMR32 cells). It is filed as cell-based. The following applies: IMR32 cells endogenously expressing human Cav2.2; 60 minute pre-incubation; 2 μM nifedipine; depolarized with 80 mM KCl, 5 mM CaCl2. In short, it runs like this:
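IMR32 cells were dye-loaded and pre-incubated 60 min with compound (10 μM to 0.1 nM) in 1.3 mM CaCl2 plus 2 μM nifedipine to block L-type channels. Cells were then depolarized with 80 mM KCl while Ca2+ was raised to 5 mM, and FLIPR read the influx. IC50 came from a sigmoidal fit of % inhibition versus the no-inhibitor control.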

Chain of human Cav2.2 (Q00975 whole entry): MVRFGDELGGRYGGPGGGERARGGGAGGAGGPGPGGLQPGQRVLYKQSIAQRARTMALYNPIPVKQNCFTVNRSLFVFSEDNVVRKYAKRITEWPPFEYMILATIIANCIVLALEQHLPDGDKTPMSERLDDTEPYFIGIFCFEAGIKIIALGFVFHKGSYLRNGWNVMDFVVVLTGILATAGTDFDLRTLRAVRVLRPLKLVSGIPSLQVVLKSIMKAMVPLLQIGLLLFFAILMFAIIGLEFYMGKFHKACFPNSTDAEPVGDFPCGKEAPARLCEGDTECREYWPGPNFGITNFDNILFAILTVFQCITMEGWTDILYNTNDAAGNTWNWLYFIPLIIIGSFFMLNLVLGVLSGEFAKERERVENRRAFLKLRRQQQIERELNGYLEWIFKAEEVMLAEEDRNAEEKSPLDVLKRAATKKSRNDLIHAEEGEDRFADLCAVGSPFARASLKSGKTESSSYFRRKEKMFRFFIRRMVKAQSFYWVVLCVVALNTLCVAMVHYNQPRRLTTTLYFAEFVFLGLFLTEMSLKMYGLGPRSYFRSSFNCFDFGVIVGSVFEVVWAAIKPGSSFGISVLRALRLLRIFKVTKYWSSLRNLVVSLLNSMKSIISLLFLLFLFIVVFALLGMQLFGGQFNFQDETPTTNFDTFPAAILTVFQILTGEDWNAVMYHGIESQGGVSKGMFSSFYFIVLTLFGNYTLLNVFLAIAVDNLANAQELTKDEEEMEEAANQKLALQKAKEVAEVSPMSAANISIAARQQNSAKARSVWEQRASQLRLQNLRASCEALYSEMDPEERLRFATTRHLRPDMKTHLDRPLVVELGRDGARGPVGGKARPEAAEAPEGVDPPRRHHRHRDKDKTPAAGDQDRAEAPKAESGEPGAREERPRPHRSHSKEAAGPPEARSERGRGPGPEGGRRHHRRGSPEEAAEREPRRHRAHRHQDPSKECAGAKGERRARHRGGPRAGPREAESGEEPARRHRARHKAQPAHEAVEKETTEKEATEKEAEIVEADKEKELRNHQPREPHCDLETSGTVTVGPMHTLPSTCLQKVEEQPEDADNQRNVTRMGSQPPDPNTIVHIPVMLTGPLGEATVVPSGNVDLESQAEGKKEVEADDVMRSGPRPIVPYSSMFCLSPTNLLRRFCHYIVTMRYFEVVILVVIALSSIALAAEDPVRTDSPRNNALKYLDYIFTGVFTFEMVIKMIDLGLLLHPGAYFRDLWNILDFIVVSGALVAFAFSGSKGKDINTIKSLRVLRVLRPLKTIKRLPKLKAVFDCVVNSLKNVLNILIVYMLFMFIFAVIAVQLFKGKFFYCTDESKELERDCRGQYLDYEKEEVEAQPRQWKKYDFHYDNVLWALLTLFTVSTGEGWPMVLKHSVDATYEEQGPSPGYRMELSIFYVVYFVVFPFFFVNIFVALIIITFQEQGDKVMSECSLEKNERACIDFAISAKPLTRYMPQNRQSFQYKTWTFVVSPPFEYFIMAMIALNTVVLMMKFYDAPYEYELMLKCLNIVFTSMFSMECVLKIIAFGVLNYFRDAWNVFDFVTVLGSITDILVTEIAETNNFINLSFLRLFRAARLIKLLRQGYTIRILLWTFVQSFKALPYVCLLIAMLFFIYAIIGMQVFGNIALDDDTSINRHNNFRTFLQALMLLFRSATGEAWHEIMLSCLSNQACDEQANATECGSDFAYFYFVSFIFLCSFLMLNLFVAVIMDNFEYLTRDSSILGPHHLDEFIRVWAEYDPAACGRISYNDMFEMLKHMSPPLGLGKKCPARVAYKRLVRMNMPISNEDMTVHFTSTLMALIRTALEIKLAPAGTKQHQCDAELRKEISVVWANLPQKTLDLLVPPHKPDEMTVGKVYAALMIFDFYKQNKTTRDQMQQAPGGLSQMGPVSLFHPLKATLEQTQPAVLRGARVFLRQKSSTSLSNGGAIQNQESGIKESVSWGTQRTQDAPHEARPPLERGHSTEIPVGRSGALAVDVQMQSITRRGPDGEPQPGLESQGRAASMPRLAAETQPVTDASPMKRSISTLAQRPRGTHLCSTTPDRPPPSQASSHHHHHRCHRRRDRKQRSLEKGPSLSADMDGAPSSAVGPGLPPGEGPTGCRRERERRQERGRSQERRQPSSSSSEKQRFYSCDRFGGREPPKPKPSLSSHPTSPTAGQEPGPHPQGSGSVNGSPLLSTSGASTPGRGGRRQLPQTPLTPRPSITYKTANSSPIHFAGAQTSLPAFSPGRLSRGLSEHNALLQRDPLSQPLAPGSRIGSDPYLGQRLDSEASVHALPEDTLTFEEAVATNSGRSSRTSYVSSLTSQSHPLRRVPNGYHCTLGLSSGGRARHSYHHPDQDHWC
Chain of human Cav2.2 (P54289 25-951 partner limits assumed): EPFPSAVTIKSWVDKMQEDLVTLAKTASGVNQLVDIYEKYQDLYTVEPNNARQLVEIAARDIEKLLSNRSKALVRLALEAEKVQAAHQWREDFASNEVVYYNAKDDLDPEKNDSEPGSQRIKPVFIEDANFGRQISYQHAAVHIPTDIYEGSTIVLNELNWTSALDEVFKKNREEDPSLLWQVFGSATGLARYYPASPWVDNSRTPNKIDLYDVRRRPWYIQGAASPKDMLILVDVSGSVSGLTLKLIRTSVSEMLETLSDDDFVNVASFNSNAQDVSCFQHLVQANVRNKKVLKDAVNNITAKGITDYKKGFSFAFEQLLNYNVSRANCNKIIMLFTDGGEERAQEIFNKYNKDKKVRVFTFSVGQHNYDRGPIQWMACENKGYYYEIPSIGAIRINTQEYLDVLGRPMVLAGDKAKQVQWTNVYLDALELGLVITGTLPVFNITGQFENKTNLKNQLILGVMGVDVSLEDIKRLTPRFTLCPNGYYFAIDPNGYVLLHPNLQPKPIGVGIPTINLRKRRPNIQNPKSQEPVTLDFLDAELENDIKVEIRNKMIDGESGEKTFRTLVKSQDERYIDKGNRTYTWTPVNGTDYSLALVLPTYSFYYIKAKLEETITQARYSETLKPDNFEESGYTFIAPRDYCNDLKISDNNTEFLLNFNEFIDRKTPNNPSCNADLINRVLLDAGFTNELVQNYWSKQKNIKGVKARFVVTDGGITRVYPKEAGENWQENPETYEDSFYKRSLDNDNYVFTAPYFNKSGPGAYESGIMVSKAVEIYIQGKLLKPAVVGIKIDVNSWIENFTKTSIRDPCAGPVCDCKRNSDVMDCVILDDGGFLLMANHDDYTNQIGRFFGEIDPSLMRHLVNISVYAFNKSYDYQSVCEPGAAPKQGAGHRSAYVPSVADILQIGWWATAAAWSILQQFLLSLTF
Chain of human Cav2.2 (P54289 952-1103 partner limits assumed): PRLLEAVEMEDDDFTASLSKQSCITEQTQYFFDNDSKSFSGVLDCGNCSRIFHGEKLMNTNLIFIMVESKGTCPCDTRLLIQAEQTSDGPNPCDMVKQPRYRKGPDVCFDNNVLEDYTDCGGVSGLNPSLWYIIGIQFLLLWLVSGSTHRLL
Chain of human Cav2.2 (P54284 whole entry partner): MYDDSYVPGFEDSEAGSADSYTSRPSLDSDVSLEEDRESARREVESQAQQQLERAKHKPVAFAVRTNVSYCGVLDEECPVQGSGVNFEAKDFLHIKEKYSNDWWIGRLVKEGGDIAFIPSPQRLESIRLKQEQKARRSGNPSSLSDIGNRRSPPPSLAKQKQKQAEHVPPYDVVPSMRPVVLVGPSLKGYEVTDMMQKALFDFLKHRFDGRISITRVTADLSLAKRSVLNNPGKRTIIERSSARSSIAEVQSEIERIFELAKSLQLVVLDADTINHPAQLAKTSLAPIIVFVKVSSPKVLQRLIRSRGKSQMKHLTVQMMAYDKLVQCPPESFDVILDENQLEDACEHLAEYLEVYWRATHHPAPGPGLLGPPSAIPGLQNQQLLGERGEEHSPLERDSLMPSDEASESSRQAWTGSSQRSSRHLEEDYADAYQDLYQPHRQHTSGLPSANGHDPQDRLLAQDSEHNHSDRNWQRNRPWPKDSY

As for `O=C(CN1CCCC(c2ccccc2)(c2ccccc2)C1=O)NC1CN(Cc2ccc(F)c(C(F)(F)F)c2)C1` [Example 198, N-{1-[4-fluoro-3-(trifluoromethyl)benzyl]azetidin-3-yl}-2-(2-oxo-3,3-diphenylpiperidin-1-yl)acetamide], the IC50 came out at 0.72 µM.
The figure for `O=C(CN1CCCC(c2ccccc2)(c2ccccc2)C1=O)N1CCOC(c2ccccc2)C1` (centres unmarked) [Example 70, 1-[2-oxo-2-(2-phenylmorpholin-4-yl)ethyl]-3,3-diphenylpiperidin-2-one] is 7.22 µM; for `COc1ccc2[nH]cc(C3=CCN(C(=O)CN4CCC(c5ccccc5)(c5ccccc5)C4=O)CC3)c2c1` [Example 35, 1-{2-[4-(5-methoxy-1H-indol-3-yl)-3,6-dihydropyridin-1(2H)-yl]-2-oxoethyl}-3,3-diphenylpyrrolidin-2-one] it is 8.07 µM; for `O=C(CN1CCCC(c2ccccc2)(c2ccccc2)C1=O)NC1CCOc2ccc(F)cc21` (centres unmarked) [Example 75, N-(6-fluoro-3,4-dihydro-2H-chromen-4-yl)-2-(2-oxo-3,3-diphenylpiperidin-1-yl)acetamide] it is 4.61 µM.
The same measure for `O=C(CN1CCC(c2ccc(C(F)(F)F)cc2)C1=O)N1Cc2ccc(F)cc2C1` (centres unmarked) [Example 266, 1-[2-(5-fluoro-1,3-dihydro-2H-isoindol-2-yl)-2-oxoethyl]-3-[4-(trifluoromethyl)phenyl]pyrrolidin-2-one]: 10.1 µM; for `O=C(CN1CCCC(c2ccccc2)(c2ccccc2)C1=O)N1CCC(c2ccc(F)cc2)(c2ccc(F)cc2)C1` [Example 205, 1-{2-[3,3-bis(4-fluorophenyl)pyrrolidin-1-yl]-2-oxoethyl}-3,3-diphenylpiperidin-2-one]: 3.32 µM; for `CN(CCCN1CCCC(c2ccc(F)cc2)(c2ccc(F)cc2)C1=O)CCc1ccccc1` [Example 123, 3,3-bis(4-fluorophenyl)-1-{3-[methyl(2-phenylethyl)amino]propyl}piperidin-2-one]: 1.45 µM.
The figure for `O=C1N(Cc2nc(-c3cccc(C(F)(F)F)c3)no2)CCCC1(c1ccccc1)c1ccccc1` [Example 179, 3,3-diphenyl-1-({3-[3-(trifluoromethyl)phenyl]-1,2,4-oxadiazol-5-yl}methyl)piperidin-2-one] is 9.41 µM.
With `O=C1N(S(=O)(=O)c2cccc(C(F)(F)F)c2)CCCC1(c1ccccc1)c1ccccc1` [Example 146, 3,3-diphenyl-1-{[3-(trifluoromethyl)phenyl]sulfonyl}piperidin-2-one], the half-inhibitory concentration (IC50) was 6.78 µM.
The figure for `O=C(CN1CCC(c2ccccc2)(c2ccccc2)C1=O)N1CCN(Cc2c(Cl)cccc2Cl)CC1` [Example 36, 1-{2-[4-(2,6-dichlorobenzyl)piperazin-1-yl]-2-oxoethyl}-3,3-diphenylpyrrolidin-2-one] is 0.9 µM; for `O=C(CN1CCCC(c2ccccc2)(c2ccccc2)C1=O)N1CCC(C(c2ccccc2)c2ccccc2)CC1` [Example 76, 1-[2-(4-benzhydrylpiperidin-1-yl)-2-oxoethyl]-3,3-diphenylpiperidin-2-one] it is 2.61 µM.
The same measure for `COc1cc(OC)cc(OCCCN(C)CCN2CCC(c3ccc(F)cc3)(c3ccc(F)cc3)C2=O)c1` [Example 105, 1-{2-[[3-(3,5-dimethoxyphenoxy)propyl](methyl)amino]ethyl}-3,3-bis(4-fluorophenyl)pyrrolidin-2-one]: 1.65 µM; for `COc1ccc(C2(c3ccc(OC)cc3)CCCN(CCCN(C)CCc3cccc(OC)c3)C2=O)cc1` [Example 125, 3,3-bis(4-methoxyphenyl)-1-{3-[[2-(3-methoxyphenyl)ethyl](methyl)amino]propyl}piperidin-2-one]: 1.68 µM; for `O=C1N(Cc2nc(-c3ccc(C(F)(F)F)cc3)no2)CCCC1(c1ccccc1)c1ccccc1` [Example 99, 3,3-diphenyl-1-({3-[4-(trifluoromethyl)phenyl]-1,2,4-oxadiazol-5-yl}methyl)piperidin-2-one]: 8.65 µM.
The figure for `O=C1N(CCN2CCN(c3cccc(C(F)(F)F)c3)CC2)CCC1(c1ccc(F)cc1)c1ccc(F)cc1` [Example 111, 3,3-bis(4-fluorophenyl)-1-(2-{4-[3-(trifluoromethyl)phenyl]piperazin-1-yl}ethyl)pyrrolidin-2-one] is 3.94 µM; for `O=C(CN1CCCC(c2ccccc2)(c2ccccc2)C1=O)N1CCC(=C(c2ccc(F)cc2)c2ccc(F)cc2)CC1` [Example 171, 1-(2-{4-[bis(4-fluorophenyl)methylene]piperidin-1-yl}-2-oxoethyl)-3,3-diphenylpiperidin-2-one] it is 2.45 µM; for `O=C1N(S(=O)(=O)c2ccc(C(F)(F)F)cc2Cl)CCC1(c1ccccc1)c1ccccc1` [Example 151, 1-{[2-chloro-4-(trifluoromethyl)phenyl]sulfonyl}-3,3-diphenylpyrrolidin-2-one] it is 18.3 µM.
`O=C1N(Cc2nc(-c3ccc(C(F)(F)F)nc3)no2)CCC1(c1ccccc1)c1ccccc1` [Example 211, 3,3-diphenyl-1-({3-[6-(trifluoromethyl)pyridin-3-yl]-1,2,4-oxadiazol-5-yl}methyl)pyrrolidin-2-one]: the half-inhibitory concentration (IC50) came to 3.15 µM.
The same measure for `O=C(CN1CCCC(c2ccccc2)(c2ccccc2)C1=O)N1CCC(C(O)(c2ccccc2)c2ccccc2)CC1` [Example 78, 1-(2-{4-[hydroxy(diphenyl)methyl]piperidin-1-yl}-2-oxoethyl)-3,3-diphenylpiperidin-2-one]: 1.74 µM; for `O=C(CN1CCC(c2ccccc2)(c2ccccc2)C1=O)N1CCC(c2ccccc2)(c2ccccc2)CC1` [Example 25, 1-[2-(4,4-diphenylpiperidin-1-yl)-2-oxoethyl]-3,3-diphenylpyrrolidin-2-one]: 0.46 µM; for `O=C(CN1CCC(c2ccc(F)cc2)C1=O)N1CCc2cc(Cl)ccc2C1` (centres unmarked) [Example 257, 1-[2-(6-chloro-3,4-dihydroisoquinolin-2(1H)-yl)-2-oxoethyl]-3-(4-fluorophenyl)pyrrolidin-2-one]: 6.16 µM.
The same measure for `O=C1N(CCN2CCN(c3cccc(C(F)(F)F)c3)CC2)CCCC1(c1ccccc1)c1ccccc1` [Example 141, 3,3-diphenyl-1-(2-{4-[3-(trifluoromethyl)phenyl]piperazin-1-yl}ethyl)piperidin-2-one]: 1.56 µM; for `O=C(CN1CCC(c2ccccc2)(c2ccccc2)C1=O)N1CCN(C(c2ccccc2)c2ccc(F)cc2)CC1` (centres unmarked) [Example 46, 1-(2-{4-[(4-fluorophenyl)(phenyl)methyl]piperazin-1-yl}-2-oxoethyl)-3,3-diphenylpyrrolidin-2-one]: 0.45 µM; for `O=C(CN1CCC(c2ccc(F)cc2)(c2ccc(F)cc2)C1=O)Nc1ccc(Cl)cn1` [Example 225, 2-[3,3-bis(4-fluorophenyl)-2-oxopyrrolidin-1-yl]-N-(5-chloropyridin-2-yl)acetamide]: 2.48 µM.
For `CC(CNC(=O)CN1CCC(c2ccccc2)(c2ccccc2)C1=O)(c1ccccc1)c1ccccc1` [Example 16, N-(2,2-diphenylpropyl)-2-(2-oxo-3,3-diphenylpyrrolidin-1-yl)acetamide], the IC50 is 0.9 µM.
The same measure for `CN1CCN(CC(=O)N2CCN(C(c3ccc(F)cc3)c3ccc(F)cc3)CC2)C(=O)C1c1ccccc1` (centres unmarked) [Example 104, 1-(2-{4-[bis(4-fluorophenyl)methyl]piperazin-1-yl}-2-oxoethyl)-4-methyl-3-phenylpiperazin-2-one]: 4.7 µM.
The same measure for `O=C1N(Cc2nc(-c3cncc(C(F)(F)F)c3)no2)CCC1(c1ccccc1)c1ccccc1` [Example 219, 3,3-diphenyl-1-({3-[5-(trifluoromethyl)pyridin-3-yl]-1,2,4-oxadiazol-5-yl}methyl)pyrrolidin-2-one]: 2.93 µM; for `N#Cc1ccc(-c2noc(CN3CCC(c4ccc(F)cc4)(c4ccc(F)cc4)C3=O)n2)cc1` [Example 235, 4-(5-{[3,3-bis(4-fluorophenyl)-2-oxopyrrolidin-1-yl]methyl}-1,2,4-oxadiazol-3-yl)benzonitrile]: 3.18 µM.
The figure for `O=C(CN1CCCC(c2ccccc2)(c2ccccc2)C1=O)N[C@@H]1CCN(Cc2cccc(C(F)(F)F)c2)C1` [Example 186, 2-(2-oxo-3,3-diphenylpiperidin-1-yl)-N-{(3R)-1-[3-(trifluoromethyl)benzyl]pyrrolidin-3-yl}acetamide] is 1.37 µM.
For the molecule `O=C1CN(C(c2ccccc2)c2ccccc2)CCN1CCN1CCC(c2ccccc2)(c2ccccc2)C1=O` [Example 64, 4-benzhydryl-1-[2-(2-oxo-3,3-diphenylpyrrolidin-1-yl)ethyl]piperazin-2-one], the IC50 came to 2.09 µM.
The figure for `O=C(CN1CCC(c2ccccc2)(c2ccccc2)C1=O)NC(c1ccccc1)c1ccccc1` [Example 14, N-benzhydryl-2-(2-oxo-3,3-diphenylpyrrolidin-1-yl)acetamide] is 0.97 µM; for `O=C(CN1CCC(c2ccccc2)(c2ccccc2)C1=O)Nc1cccc(C(F)(F)F)n1` [Example 247, 2-(2-oxo-3,3-diphenylpyrrolidin-1-yl)-N-[6-(trifluoromethyl)pyridin-2-yl]acetamide] it is 4.48 µM.
As to `O=C1N(Cc2nc(-c3ccc(C(F)(F)F)cc3)no2)CCCC1(c1ccc(F)cc1)c1ccc(F)cc1` [Example 191, 3,3-bis(4-fluorophenyl)-1-({3-[4-(trifluoromethyl)phenyl]-1,2,4-oxadiazol-5-yl}methyl)piperidin-2-one], the IC50 was found to be 6.87 µM.
The same measure for `O=C(CN1CCCC(c2ccccc2)C1=O)N1CCN(Cc2cccc(C(F)(F)F)c2)CC1` (centres unmarked) [Example 93, 1-(2-oxo-2-{4-[3-(trifluoromethyl)benzyl]piperazin-1-yl}ethyl)-3-phenylpiperidin-2-one]: 5.9 µM.
The figure for `O=C1N(Cc2nc(-c3cccnc3)no2)CCC1(c1ccccc1)c1ccccc1` [Example 221, 3,3-diphenyl-1-[(3-pyridin-3-yl-1,2,4-oxadiazol-5-yl)methyl]pyrrolidin-2-one] is 5.67 µM.
